Assay results reported in patent EP3964497A1, “SUBSTITUTED VICINAL DIAMINE COMPOUNDS AND THEIR USE IN THE TREATMENT, AMELIORATION OR PREVENTION OF PAIN” (priority 2020, dated 2022).
Read-outs that look alike come from different tables or passages of the source.

Legend:
µOR [1] = target: T1, µOR (Homo sapiens, UniProt P35372); test: β-arrestin-2 recruitment, enzyme-fragment complementation assay in HEK-293 cells; format: cell-based; parameters: expressed in transfected cells; host or cells: HEK-293 cells stably expressing EA-tagged β-arrestin-2, transiently transfected with µOR-PK1; conditions: for Emax: HEK293, relative to the full effect of reference agonist DAMGO [=100%]; for β-arrestin recruitment EC50: mean of 3-8 tests, 90 min incubation, CBA = could not be analyzed (no dose-response curve)
Protocol: (§1) Functionally selective drugs, which are biased towards Gi protein activation over β-arrestin signaling at the µOR are indicated to show an improved side effect profile. Thus, the characterization of the functional properties of the described examples at the µOR were performed by determination of the ligand stimulated G-protein related signaling and β-arrestin recruitment applying cell based in-vitro test systems. Full and partial agonists as well as antagonists for G protein related signaling were identified.
Measurement of β-arrestin-2 recruitment was done applying an enzyme-fragment complementation assay as described previously (C. Gentzsch, K. Seier, A. Drakopoulos, M.-L. Jobin, Y. Lanoiselee, Z. Koszegi, D. Maurel, R. Sounier, H. Huebner, P. Gmeiner, S. Granier, D. Calebiro, M. Decker. Ang. Chem. Int. Ed. 2020, 59, 2-9. J. Hellmann, M. Drabek, J. Yin, J. Gunera, T. Proell, F. Kraus, C.J. Langmead, H. Huebner, D. Weikert, P. Kolb, D.M. Rosenbaum, P. Gmeiner. PNAS 2020, 117, 18059-18067). In brief, HEK-293 cells stably expressing the enzyme acceptor (EA) tagged β-arrestin-2 fusion protein were transiently co-transfected with the ProLink tagged µOR-PK1 After 24 h cells were transferred into 384-well microplates and cultured for further 24 h. To start arrestin recruitment compounds were added to the cells to get a final concentration in a range of 10 pM to 100 µM. After incubation for 90 min reaction was stopped by addition of detection mix. Chemiluminescence was determined in duplicates (3-8 individual experiments for each compound in comparison to the reference agonist DAMGO). Data analysis was done as described above.
(§2) In the above table, the numbers indicate mean EC50 values in nM and Emax values relative to the full effect of reference agonist DAMGO [=100%], respectively and are derived from 3-9 individual experiments for G-protein signaling and 3-8 tests for arrestin recruitment. ND = not determined.

κOR = target: T2, κOR (Homo sapiens, UniProt P41145); test: competitive radioligand binding with [3H]diprenorphine, membranes of transfected HEK 293T cells
T2 construct: expressed in transfected cells; host or cells: HEK 293T cells, transient transfection, membrane preparation
Protocol: (§3) To verify the subtype selectivity of the described compounds for µOR over δOP and κOR, respectively, the binding affinities of the described examples to the different human opioid receptors in an in-vitro test system were measured.
After preparation of membranes, radioligand displacement assays were run in 96-well format at a final volume of 200 µL in binding buffer (50 mM Tris-HCI, 1 mM EDTA, 5 mM MgCl2, 100 µg/mL bacitracin, 5 µg/mL soybean trypsin inhibitor, pH 7.4) with the radioligand [^3H]diprenorphine (specific activity = 31 Ci/mmol) at a final concentration of 0.20-0.30 nM. […] Unspecific binding was determined in the presence of 10 µM of the naloxone. […] The resulting competition curves of the receptor binding experiments were analyzed by nonlinear regression. […] Three to seven experiments per compound were performed, with each concentration in triplicate.

δOR = target: T3, δOR (Homo sapiens, UniProt P41143); test: as above
T3 construct: expressed in transfected cells; host or cells: HEK 293T cells, transient transfection, membrane preparation
Protocol: as §3
(§4) For the determination of receptor binding affinity competitive radioligand binding experiments were performed as described in literature (H. Huebner, C. Haubmann, W. Utz, P. Gmeiner, J. Med. Chem., 2000, 43, 756-762). In brief, HEK 293T cells were transiently transfected with the cDNAs coding for the human opioid receptor subtypes µOR, δOR, and kOR, respectively, using a solution of polyethylenimine in PBS (PEI, linear, 25 kDa, Polysciences) as transfection reagent at a 3:1 PEI to cDNA ratio (I. Fish, A. Stoessel, K. Eitel, C. Valant, S. Albold, H. Huebner, D. Moeller, M.J. Clark, R.K. Sunahara, A. Christopoulos, B.K. Shoichet, P. Gmeiner, J. Med. Chem., 2017, 60, 9239-9250). After preparation of membranes, radioligand displacement assays were run in 96-well format at a final volume of 200 µL in binding buffer (50 mM Tris-HCI, 1 mM EDTA, 5 mM MgCl2, 100 µg/mL bacitracin, 5 µg/mL soybean trypsin inhibitor, pH 7.4) with the radioligand [^3H]diprenorphine (specific activity = 31 Ci/mmol) at a final concentration of 0.20-0.30 nM. […] Unspecific binding was determined in the presence of 10 µM of the naloxone. Protein concentrations were determined employing the method of Lowry with bovine serum albumin as standard (O.H. Lowry, N.J. Rosebrough, A.L. Farr, R.J. Randall, J. Biol. Chem., 1951, 193, 265-275). The resulting competition curves of the receptor binding experiments were analyzed by nonlinear regression. The data were initially fit using a sigmoid model to provide IC50 values, which were subsequently transformed to Ki values according to the equation of Cheng and Prusoff (Y.-C. Cheng, W. H. Prusoff, Biochem. Pharmacol., 1973, 22, 3099-3108). Three to seven experiments per compound were performed, with each concentration in triplicate.

µOR [2] = target: T1, µOR; test: G-protein mediated signaling, IP1 accumulation assay (HTRF) in HEK-293T cells with hybrid G-protein Gαqi; format: cell-based; parameters: expressed in transfected cells; host or cells: HEK-293T cells, transient transfection; conditions: for Emax: HEK-293T, read-out: G-protein signaling Emax
Protocol: as §1
The determination of G-protein stimulated µOR activation was measured applying an IP1 accumulation assay as described previously (J. Kruell, S.K. Fehler, L. Hofmann, N. Nebel, S. Maschauer, O. Prante, P. Gmeiner, H. Lanig, H. Huebner, M.R. Heinrich. ChemMedChem 2020, 15, 1175-1186. C. Gentzsch, K. Seier, A. Drakopoulos, M.-L. Jobin, Y. Lanoiselee, Z. Koszegi, D. Maurel, R. Sounier, H. Huebner, P. Gmeiner, S. Granier, D. Calebiro, M. Decker. Ang. Chem. Int. Ed. 2020, 59, 2-9). In brief, HEK-293T cells were grown to confluence of approximately 70% and transiently transfected with the cDNA of the human µOR receptor and the hybrid G-protein Gαqi. After one day cells were seeded into 384-well microplates. For testing cells were incubated with test compounds (final range of concentration from 1 pM up to 10 µM) for 180 min at 37 °C followed by addition of detection reagents. Time resolved fluorescence resonance energy transfer (HTRF) was determined using a microplate reader. Each compound was tested in duplicates in 3-9 individual experiments in comparison to the reference compound DAMGO. The resulting dose response curves were analyzed by nonlinear regression using the algorithms in PRISM 6.0 (GraphPad software, San Diego, CA), fitted with a sigmoid model and normalized to basal activity (0 %) and the maximal effect caused by the reference full agonist DAMGO (100 %).
as §2

µOR [3] = target: T1, µOR; test: competitive radioligand binding with [3H]diprenorphine, membranes of transfected HEK 293T cells; parameters: expressed in transfected cells; host or cells: HEK 293T cells, transient transfection, membrane preparation
Protocol: as §3, §4

[4] = radioligand [3H]diprenorphine, number in brackets = number of experiments, read-out: mean Ki value κOR
[5] = radioligand [3H]diprenorphine, number in brackets = number of experiments, read-out: mean Ki value δOR

Row | Compound | Emax (µOR [1]) [%] | β-arrestin recruitment EC50 (µOR [1]) | Ki (κOR; [4]) [µM] | Ki (δOR; [5]) [µM] | EC50 (µOR [2]) [µM] | Emax (µOR [2]) [%] | Ki (µOR [3]) [µM] | Ki (κOR) [µM] | Ki (δOR) [µM] | Ki (µOR [3]; radioligand [3H]diprenorphine, number in brackets = number of experiments, read-out: mean Ki value µOR) [µM] | G-protein signaling EC50 (µOR [2]; mean of 3-9 experiments, 180 min at 37 °C, CBA = could not be analyzed (no dose-response curve)) | EC50 (µOR [2]; mean of 3-9 experiments, 180 min at 37 °C, CBA = could not be analyzed (no dose-response curve), read-out: G-protein signaling EC50) [µM] | EC50 (µOR [1]) [µM]
1 | CN(C)[C@H](CNC(=O)/C=C/c1ccccc1C(F)(F)F)Cc1ccc(O)cc1 [Example 7, (S,E)-N-(2-(Dimethylamino)-3-(4-hydroxyphenyl)propyl)-3-(2-(trifluoromethyl)phenyl)acrylamide] | < 5 | CBA | 0.14 | 0.18 | 0.013 | 44 | 0.028 |  |  |  |  |  | 
2 | CN(C)[C@H](CNC(=O)/C=C/c1cccc(C(F)(F)F)c1)Cc1ccc(O)cc1 [Example 8, (S,E)-N-(2-(Dimethylamino)-3-(4-hydroxyphenyl)propyl)-3-(3-(trifluoromethyl)phenyl)acrylamide formiate] | < 5 | CBA |  |  | 0.015 | 100 | 0.03 | 0.58 | 0.12 |  |  |  | 
3 | CN(C)[C@H](CNC(=O)/C=C/c1ccc(C(F)(F)F)cc1)Cc1ccc(O)cc1 [Example 9, (S,E)-N-(2-(Dimethylamino)-3-(4-hydroxyphenyl)propyl)-3-(4-(trifluoromethyl)phenyl)acrylamide] | < 5 | CBA | 2.8 | 1.1 | 0.067 | 92 |  |  |  | 0.17 |  |  | 
4 | Cc1cc(O)cc(C)c1C[C@H](N)CNC(=O)/C=C/c1ccccc1 [Example 10, (S)-N-(2-Amino-3-(4-hydroxy-2,6-dimethylphenyl)propyl)cinnamamide formiate] | < 5 | CBA |  |  |  | < 5 | 0.058 | 0.44 | 0.51 |  | CBA |  | 
5 | NC(=O)c1ccc(C[C@H](N)CNC(=O)/C=C/c2cccc(C(F)(F)F)c2)cc1 [Example 14, (S,E)-4-(2-Amino-3-(3-(3-(trifluoromethyl)phenyl)acrylamido)propyl)benzamide formiate] | < 5 | CBA |  |  |  | 75 | 0.46 | 5.6 | 2.9 |  |  | 2.2 | 
6 | CN(C)[C@H](CNC(=O)/C=C/c1cccc(C(F)(F)F)c1)Cc1ccc(C(N)=O)cc1 [Example 15, (S,E)-4-(2-(Dimethylamino)-3-(3-(3-(trifluoromethyl)phenyl)acrylamido)propyl)benzamide formiate] | 5 |  |  |  | 0.0063 | 95 | 0.0067 | 0.45 | 0.055 |  |  |  | 0.13
7 | CN(C)[C@H](CNC(=O)/C=C/c1cccc2ccccc12)Cc1ccc(C(N)=O)cc1 [Example 18, (S,E)-4-(2-(Dimethylamino)-3-(3-(naphthalen-1-yl)acrylamido)propyl)benzamide formiate] | 4 |  |  |  | 0.0098 | 92 | 0.0062 | 0.2 | 0.13 |  |  |  | 0.12
8 | CN(C)[C@H](CNC(=O)/C=C/c1ccsc1)Cc1ccc(O)cc1 [Example 19, (S,E)-N-(2-(Dimethylamino)-3-(4-hydroxyphenyl)propyl)-3-(thiophen-3-yl)acrylamide] | < 5 | CBA | 0.13 |  | 0.0075 | 53 | 0.0085 |  | 0.059 |  |  |  | 
